Results: patent publication US10500166B2, “Methods for the treatment of erectile dysfunction using fispemifene” (QUATRX PHARMACEUTICALS, priority 2007, dated 2019)

How the values were obtained:
[1] = system: DHT (dihydrotestosterone); assay: Example 3 study in hypogonadal men: serum dihydrotestosterone (ITT); assay type: in vivo, human; conditions: for Dihydrotestosterone, Max / Dihydrotestosterone, Mean ± SD / Dihydrotestosterone, Median / Dihydrotestosterone, Min: Baseline (Visit 2);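 as to Dihydrotestosterone, Max: serum DHT concentration in pg/mL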;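 as to Dihydrotestosterone, Mean ± SD: serum DHT concentration in pg/mL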;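 as to Dihydrotestosterone, Median: serum DHT concentration in pg/mL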;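 as to Dihydrotestosterone, Min: serum DHT concentration in pg/mL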
Method: A randomized, double-blind, placebo controlled, parallel-group study of once-daily doses of fispemifene (100, 200, and 300 mg/day) given for 4 weeks was conducted in a population of hypogonadal men. Subjects were required to meet all of the following inclusion criteria at screening and prior to randomization to be eligible for the study:
There were 77 subjects total. The number of subjects randomized to the 100 mg fispemifene, 200 mg fispemifene, 300 mg fispemifene, and placebo arms were 21, 21, 19, and 16, respectively.
Subjects were randomly assigned to one of four treatment groups in a 1:1:1:1 ratio: • Treatment A (100 mg): fispemifene 100 mg+placebo+placebo; • Treatment B (200 mg): fispemifene 100 mg+fispemifene 100 mg+placebo; • Treatment C (300 mg): fispemifene 100 mg+fispemifene 100 mg+fispemifene 100 mg; and • Treatment D (Placebo): placebo+placebo+placebo.
Subjects took one dose (three capsules) of study medication once a day at home for 4 weeks. Capsules were to be taken in the morning immediately after breakfast, with the exception of the morning of the Week 4 visit. Capsules were not to be taken on the morning of the Week 4 visit because trough plasma levels of fispemifene were determined by a blood sample taken at this visit. Each subject was randomly assigned to treatment with one of the 3 different dose regimens of fispemifene or placebo vehicle. Each subject received a 4 week supply of study drug.
Blood samples were taken from the subjects within 1 week prior to dosing with study drug to establish baseline values; after 2 and 4 weeks of randomization; and 2 weeks after the last dose of study drug. Serum was prepared from those samples and used to determine the mean % change from baseline in total testosterone, free testosterone, SHBG (sex hormone-binding globulin), DHT (dihydrotestosterone), E2 (estradiol), LH (luteinizing hormone), FSH (follicle stimulating hormone), and inhibin B.
3. Percent change from baseline in SHBG, DHT, E2, LH, FSH, inhibin B, and testosterone/E2 ratio at Weeks 2, 4, and 6.

[2] = Phase I repeated dose study 101-50202: safety and tolerability; assay type: in vivo, human
Method: A suitable dosage is expected to be in a range of about 5 mg/day to about 1500 mg/day. In a phase I repeated dose study, twenty-three healthy men aged 50 to 70 years received daily 10 mg, 30 mg 100 mg and 300 mg dosages of fispemifene for 28 days. […] All other adverse events were single cases. Fispemifene at the 100 and 300 mg/day dose levels increased serum total testosterone levels 32% and 75% respectively. Thus, a preferred dosage range of fispemifene to treat ED is expected to be 10 to 1000 mg/day.
Fispemifene has been studied in two phase I studies in humans—in a single dose and a repeated dose study. Effect of fispemifene on hormone levels was one main focus of the repeated dose study. The phase I repeated dose study (number 101-50202) was a randomized, double-blind, placebo-controlled 28-day dose-escalation study performed in 31 healthy, elderly men, aged 50-68 years. The main objective of the study was to investigate the tolerability, safety and pharmacokinetics of fispemifene after repeated oral doses, but the study focused also on the effects of fispemifene on serum free and total testosterone, estradiol, and other relevant hormones. The fispemifene doses 10, 30, 100 and 300 mg per day and placebo were administered once every morning as capsules containing 10 mg or 100 mg of fispemifene, or placebo.
The variables for safety and tolerability were adverse events, vital signs, 12-lead ECG, clinical laboratory evaluations, physical examination, ultrasound examinations (mammary glands) and inhibin B. For pharmacokinetics, the concentrations of fispemifene and its metabolite(s) were to be evaluated. For pharmacodynamics, serum concentrations of FSH, LH, estradiol, testosterone, SHBG, prolactin, aldosterone, cortisol and TSH before and during treatment were measured and compared with the concentrations in the placebo-group.

[3] = 100 mg/day, to Week 6 (2 weeks after discontinuation)
[4] = 200 mg/day, to Week 6 (2 weeks after discontinuation)
[5] = 300 mg/day, to Week 6 (2 weeks after discontinuation)

**Q.** With OCCOCCOc1ccc(/C(=C(/CCCl)c2ccccc2)c2ccccc2)cc1 [Fispemifene, (Z)-2-{2-[4-(4-Chloro-1,2-diphenylbut-1-enyl)phenoxy]ethoxy}ethanol] as the compound, how does the “Dihydrotestosterone, Max” value ([1]; 100 mg/day) read?
**A.** 385.0 pg/mL

**Q.** And the “Dihydrotestosterone, Mean ± SD” value ([1]; 100 mg/day)?
**A.** 177.5 ± 88.58 pg/mL

**Q.** And the “Dihydrotestosterone, Median” value ([1]; 100 mg/day)?
**A.** 180.0 pg/mL

**Q.** What about the “Dihydrotestosterone, Min” value ([1]; 100 mg/day) of the same compound?
**A.** 50.0 pg/mL

**Q.** And the “Dihydrotestosterone, % Change from Baseline, Max” value ([1]; 100 mg/day, to Week 2)?
**A.** 109%

**Q.** What about the “Dihydrotestosterone, % Change from Baseline, Median” value ([1]; 100 mg/day, to Week 2) of the same compound?
**A.** 42%

**Q.** What about the “Dihydrotestosterone, % Change from Baseline, Min” value ([1]; 100 mg/day, to Week 2) of the same compound?
**A.** 0%

**Q.** What about the “Dihydrotestosterone, % Change from Baseline, Max” value ([1]; 100 mg/day, to Week 4) of the same compound?
**A.** 98%

**Q.** And the “Dihydrotestosterone, % Change from Baseline, Median” value ([1]; 100 mg/day, to Week 4)?
**A.** 33%

**Q.** And the “Dihydrotestosterone, % Change from Baseline, Max” value [1, 3]?
**A.** 64%

**Q.** What about the “Dihydrotestosterone, % Change from Baseline, Median” value [1, 3] of the same compound?
**A.** 19%

**Q.** What about the “Dihydrotestosterone, Max” value ([1]; 200 mg/day) of the same compound?
**A.** 398.0 pg/mL

**Q.** And the “Dihydrotestosterone, Mean ± SD” value ([1]; 200 mg/day)?
**A.** 185.2 ± 95.37 pg/mL

**Q.** And the “Dihydrotestosterone, Median” value ([1]; 200 mg/day)?
**A.** 168.0 pg/mL

**Q.** What about the “Dihydrotestosterone, Min” value ([1]; 200 mg/day) of the same compound?
**A.** 67.0 pg/mL

**Q.** And the “Dihydrotestosterone, % Change from Baseline, Max” value ([1]; 200 mg/day, to Week 2)?
**A.** 128%

**Q.** And the “Dihydrotestosterone, % Change from Baseline, Median” value ([1]; 200 mg/day, to Week 2)?
**A.** 50%

**Q.** And the “Dihydrotestosterone, % Change from Baseline, Max” value ([1]; 200 mg/day, to Week 4)?
**A.** 162%

**Q.** And the “Dihydrotestosterone, % Change from Baseline, Median” value ([1]; 200 mg/day, to Week 4)?
**A.** 61%

**Q.** What about the “Dihydrotestosterone, % Change from Baseline, Max” value [1, 4] of the same compound?
**A.** 78%

**Q.** What about the “Dihydrotestosterone, % Change from Baseline, Median” value [1, 4] of the same compound?
**A.** 11%

**Q.** And the “Dihydrotestosterone, Max” value ([1]; 300 mg/day)?
**A.** 294.0 pg/mL

**Q.** What about the “Dihydrotestosterone, Mean ± SD” value ([1]; 300 mg/day) of the same compound?
**A.** 171.6 ± 76.42 pg/mL

**Q.** And the “Dihydrotestosterone, Median” value ([1]; 300 mg/day)?
**A.** 179.0 pg/mL

**Q.** What about the “Dihydrotestosterone, Min” value ([1]; 300 mg/day) of the same compound?
**A.** 50.0 pg/mL

**Q.** And the “Dihydrotestosterone, % Change from Baseline, Max” value ([1]; 300 mg/day, to Week 2)?
**A.** 162%

**Q.** And the “Dihydrotestosterone, % Change from Baseline, Median” value ([1]; 300 mg/day, to Week 2)?
**A.** 65%

**Q.** And the “Dihydrotestosterone, % Change from Baseline, Min” value ([1]; 300 mg/day, to Week 2)?
**A.** 0%

**Q.** And the “Dihydrotestosterone, % Change from Baseline, Max” value ([1]; 300 mg/day, to Week 4)?
**A.** 163%

**Q.** What about the “Dihydrotestosterone, % Change from Baseline, Median” value ([1]; 300 mg/day, to Week 4) of the same compound?
**A.** 73%

**Q.** What about the “Dihydrotestosterone, % Change from Baseline, Min” value ([1]; 300 mg/day, to Week 4) of the same compound?
**A.** 0%

**Q.** And the “Dihydrotestosterone, % Change from Baseline, Max” value [1, 5]?
**A.** 98%

**Q.** What about the “Dihydrotestosterone, % Change from Baseline, Median” value [1, 5] of the same compound?
**A.** 19%

**Q.** And the “adverse events reported more than once” value ([2]; 10, 30, 100 and 300 mg daily for 28 days)?
**A.** upper respiratory tract infection, nausea and abdominal pain

**Q.** What about the tolerability ([2]; 10, 30, 100 and 300 mg daily for 28 days, all dose levels) of the same compound?
**A.** well tolerated

**Q.** And the safety concerns ([2]; any dose (10-300 mg/day))?
**A.** no safety concerns
